This is an account of results in patent US7427485B2, “Method for classification of anti-psychotic drugs” (The Rockefeller University, priority 2001, dated 2008).

Read-outs that look alike come from different tables or passages of the source.

One experiment has as its system Thr34-DARPP-32. Kind of experiment: In vivo phosphorylation of DARPP-32 at Thr34 in mouse striatum (immunoblot, phosphorylation state-specific antibodies). Also on record: species or system mice. As to conditions: for Thr34-DARPP-32 phosphorylation level (mean): eticlopride 0.5, haloperidol 0.2, clozapine 5 mg/kg i.p., time 0 control = 100. The protocol: (§1) Male C57/BL6 mice (groups of six) were administered intraperitoneal injections of one of three anti-psychotic compounds, haloperidol (a typical anti-psychotic), clozapine (an atypical anti-psychotic), or eticlopride (a selective dopamine D2 receptor antagonist). All animals were sacrificed by decapitation at 15, 30, or 60 minutes post-injection. After decapitation, the heads were immediately immersed in liquid nitrogen for 6 seconds to inactivate all protein activity. The brains were then dissected on an ice-cold surface and the striata removed and sonicated in 750 μl of 1% SDS, and then boiled for 10 minutes. Levels of phosphorylated DARPP-32, CREB, and ERK1 and ERK2 were then determined.
(§2) In order to determine levels of phosphoproteins in brain tissue, aliquots of the brain homogenate were loaded onto 10% polyacrylamide gels and the proteins separated by SDS/PAGE analysis, and then transferred to poly(vinylidene difluoride) membranes as described by Towbin and colleagues (Towbin, H. et al. 1979. Proc. Natl. Acad. Sci. USA 76:4350-4354). The effect of the drugs on the phosphorylation of DARPP-32 at two sites (Thr34 and Thr75), ERK1 at two sites (Thr202 and Tyr204), ERK2 at two sites (Thr185 and Tyr187), and CREB at one site (Ser133) was assessed using phosphorylation state-specific antibodies according to standard methods. Anti-phospho-ERK1 and anti-phospho-ERK2 antibodies were obtained from Cell Signaling Technology (Beverly, Mass.). Anti-phospho-CREB antibody was obtained from Upstate Biotechnology (Lake Placid, N.Y.). Anti-phospho-DARPP32 antibodies were used that had been produced according to the methods disclosed in U.S. patent application Ser. No. 09/419,379, by Bibb et al., entitled “Methods of Identifying Agents That Regulate Phosphorylation/Dephosphorylation in Dopamine Signaling,” filed Oct. 15, 1999, and Ser. No. 09/687,959, by Bibb et al., entitled “Methods of Identifying Agents That Regulate Phosphorylation/Dephosphorylation in Dopamine Signaling,” filed Oct. 13, 2000, (each of which is incorporated herein by reference in its entirety). These methods were used to produce phosphorylation state-specific antibodies having specificity for Thr34-phosphorylated and Thr75-phosphorylated DARPP-32.
Background: A western blot detects proteins with antibodies after separation by electrophoresis.

Another experiment has as its system Thr185- and Tyr187- ERK2. Kind of experiment: In vivo phosphorylation of ERK2 in mouse striatum (immunoblot, phosphorylation state-specific antibodies). Also on record: species or system mice. As to conditions: for Thr185- and Tyr187- ERK2 phosphorylation level (mean): eticlopride 0.5, haloperidol 0.2, clozapine 5 mg/kg i.p., time 0 control = 100; for levels of phospho-ERK2 (in words): haloperidol 0.2 mg/kg, eticlopride 0.5 mg/kg. The protocol: as §1, §2

For a further experiment, the system named is Ser133-CREB. As to the kind of experiment: In vivo phosphorylation of CREB in mouse striatum (immunoblot, phosphorylation state-specific antibodies). Also on record: species or system mice. As to conditions: for Ser133-CREB phosphorylation level (mean): eticlopride 0.5, haloperidol 0.2, clozapine 5 mg/kg i.p., time 0 control = 100; for levels of phospho-CREB (in words): haloperidol 0.2 mg/kg, eticlopride 0.5 mg/kg. The protocol: as §1, §2

In another experiment the test system is Thr202- and Tyr204- ERK1. As to the kind of experiment: In vivo phosphorylation of ERK1 in mouse striatum (immunoblot, phosphorylation state-specific antibodies). As to conditions: for Thr202- and Tyr204- ERK1 phosphorylation level (mean): eticlopride 0.5, haloperidol 0.2, clozapine 5 mg/kg i.p., time 0 control = 100; for levels of phospho-ERK1 (in words): haloperidol 0.2 mg/kg, eticlopride 0.5 mg/kg.

The subject of another experiment is Thr75-DARPP-32. Kind of experiment: In vivo phosphorylation of DARPP-32 at Thr75 in mouse striatum (immunoblot, phosphorylation state-specific antibodies). As to conditions: for Thr75-DARPP-32 phosphorylation level (mean): eticlopride 0.5, haloperidol 0.2, clozapine 5 mg/kg i.p., time 0 control = 100.
A further experiment deals with DARPP-32. As to conditions: chronic administration in rats; cited from earlier work.
For a further experiment, the system named is DOI-induced behaviors. As to conditions: rats; 30 min pretreatment i.p.; fixed dose of DOI 3.0 mg/kg; cited from earlier work.
The subject of the next experiment is c-fos. As to conditions: dorsal striatum; cited from earlier work.

Consider `CN1CCN(C2=Nc3cc(Cl)ccc3Nc3ccccc32)CC1` [Clozapine, clozapine], for which the “Thr34-DARPP-32 phosphorylation level (mean)” value came out at 188 with Thr34-DARPP-32 (15 min post-injection), 209 in the experiment on Thr34-DARPP-32 (30 min post-injection) and 222 in the experiment with Thr34-DARPP-32 (60 min post-injection). In addition, the “Thr185- and Tyr187- ERK2 phosphorylation level (mean)” value worked out at 62 in the experiment with Thr185- and Tyr187- ERK2 (15 min post-injection); 41 in the experiment on Thr185- and Tyr187- ERK2 (30 min post-injection); 15 in the experiment on Thr185- and Tyr187- ERK2 (60 min post-injection). The “Ser133-CREB phosphorylation level (mean)” value in the experiment with Ser133-CREB (15 min post-injection) was determined as 51; with Ser133-CREB (30 min post-injection), 62; with Ser133-CREB (60 min post-injection), 57. Besides, the “Thr202- and Tyr204- ERK1 phosphorylation level (mean)” value in the experiment on Thr202- and Tyr204- ERK1 (15 min post-injection) is on record as 90; in the experiment on Thr202- and Tyr204- ERK1 (30 min post-injection), 75; in the experiment with Thr202- and Tyr204- ERK1 (60 min post-injection), 33. In addition, the “Thr75-DARPP-32 phosphorylation level (mean)” value worked out at 179 with Thr75-DARPP-32 (15 min post-injection), 216 in the experiment on Thr75-DARPP-32 (30 min post-injection) and 203 in the experiment with Thr75-DARPP-32 (60 min post-injection).
In the case of `N[C@@H]1C[C@H]1c1ccccc1` (racemic) [tranylcypromine], the “frontal cortex levels of DARPP-32 immunoreactivity” value (“frontal cortex levels” below) in the experiment on DARPP-32 was “significant increases”.
Turning to `Cc1nc2sccn2c(=O)c1CCN1CCC(=C(c2ccc(F)cc2)c2ccc(F)cc2)CC1` [ritanserin], in the experiment on DOI-induced behaviors, the “effect on the three behavioral effects of DOI (head-and-body shakes, forepaw tapping, skin-jerks)” value (“effect on the three behavioral effects” for short) is reported as “antagonize”.
For the molecule `CCNC(=O)N1CCN(CCCC(c2ccc(F)cc2)c2ccc(F)cc2)CC1` [amperozide], the “effect on the three behavioral effects” value with DOI-induced behaviors is reported as “antagonize”.
As for `COc1cccc([C@H](O)C2CCN(CCc3ccc(F)cc3)CC2)c1OC` [M100907], the “effect on the three behavioral effects” value in the experiment with DOI-induced behaviors is given as “antagonize”.
For `O=C(CCCN1CCC(O)(c2ccc(Cl)cc2)CC1)c1ccc(F)cc1` [Haloperidol, haloperidol], the “Thr34-DARPP-32 phosphorylation level (mean)” value in the experiment on Thr34-DARPP-32 (15 min post-injection) stood at 195; in the experiment on Thr34-DARPP-32 (30 min post-injection), 196; in the experiment with Thr34-DARPP-32 (60 min post-injection) it was 155. For the same molecule, the “Thr34 phosphorylation (in words)” value in the experiment with Thr34-DARPP-32 (at 60 minutes) is “no statistical difference from controls”; in the experiment on Thr34-DARPP-32 (for up to 30 minutes), “increased”. For the same molecule, in the experiment with Thr185- and Tyr187- ERK2, the “time after administration at which phospho-ERK2 levels returned to control levels” value was 30 min. Further, the “Thr185- and Tyr187- ERK2 phosphorylation level (mean)” value stood at 151 in the experiment on Thr185- and Tyr187- ERK2 (15 min post-injection); 114 with Thr185- and Tyr187- ERK2 (30 min post-injection); 107 in the experiment on Thr185- and Tyr187- ERK2 (60 min post-injection). The “levels of phospho-ERK2 (in words)” value in the experiment with Thr185- and Tyr187- ERK2 is listed as “significant increases”. Moreover, in the experiment with Ser133-CREB, the “time after administration at which phospho-CREB levels returned to control levels” value was 30 min. For the same molecule, the results for the “Ser133-CREB phosphorylation level (mean)” value in the experiment with Ser133-CREB (15 min post-injection), with Ser133-CREB (30 min post-injection) and in the experiment on Ser133-CREB (60 min post-injection) were 148, 131 and 114, respectively. Further, in the experiment on Ser133-CREB, the “levels of phospho-CREB (in words)” value was “significant increases”. Further, in the experiment on DARPP-32, the “frontal cortex levels” value is given as “without effects”. The “inducing c-fos expression, as compared to clozapine” value in the experiment on c-fos was “much more effective”. Also, the “effect on the three behavioral effects” value in the experiment on DOI-induced behaviors was “antagonize”. Moreover, the “Thr202- and Tyr204- ERK1 phosphorylation level (mean)” value in the experiment on Thr202- and Tyr204- ERK1 (15 min post-injection) was found to be 231; with Thr202- and Tyr204- ERK1 (30 min post-injection), 187; in the experiment with Thr202- and Tyr204- ERK1 (60 min post-injection), 169. Further, the “levels of phospho-ERK1 (in words)” value in the experiment with Thr202- and Tyr204- ERK1 was “significant increases”. Moreover, the “DARPP-32 phosphorylation at Thr75 (in words)” value in the experiment with Thr75-DARPP-32 was “without effect”. For the same molecule, the “Thr75-DARPP-32 phosphorylation level (mean)” value was 133 in the experiment with Thr75-DARPP-32 (15 min post-injection), 144 with Thr75-DARPP-32 (30 min post-injection) and 138 in the experiment with Thr75-DARPP-32 (60 min post-injection).
Regarding `CCc1cc(Cl)c(OC)c(C(=O)NC[C@@H]2CCCN2CC)c1O` [Eticlopride, eticlopride], the “Thr34-DARPP-32 phosphorylation level (mean)” value is listed as 192 in the experiment with Thr34-DARPP-32 (15 min post-injection), 226 with Thr34-DARPP-32 (30 min post-injection) and 190 with Thr34-DARPP-32 (60 min post-injection). Moreover, the “time after administration at which phospho-ERK2 levels returned to control levels” value in the experiment on Thr185- and Tyr187- ERK2 was 30 min. Also, the “Thr185- and Tyr187- ERK2 phosphorylation level (mean)” value worked out at 132 in the experiment on Thr185- and Tyr187- ERK2 (15 min post-injection); 97 with Thr185- and Tyr187- ERK2 (30 min post-injection); 96 in the experiment with Thr185- and Tyr187- ERK2 (60 min post-injection). Besides, in the experiment on Thr185- and Tyr187- ERK2, the “levels of phospho-ERK2 (in words)” value is reported as “significant increases”. The “time after administration at which phospho-CREB levels returned to control levels” value with Ser133-CREB is 60 min. In addition, the “Ser133-CREB phosphorylation level (mean)” value in the experiment with Ser133-CREB (15 min post-injection) worked out at 167; with Ser133-CREB (30 min post-injection) it was 146; in the experiment on Ser133-CREB (60 min post-injection), 123. Moreover, in the experiment with Ser133-CREB, the “levels of phospho-CREB (in words)” value was “significant increases”. The “Thr202- and Tyr204- ERK1 phosphorylation level (mean)” value is reported as 223 in the experiment with Thr202- and Tyr204- ERK1 (15 min post-injection); 207 in the experiment on Thr202- and Tyr204- ERK1 (30 min post-injection); 170 in the experiment on Thr202- and Tyr204- ERK1 (60 min post-injection). Moreover, the “levels of phospho-ERK1 (in words)” value in the experiment with Thr202- and Tyr204- ERK1 is given as “significant increases”. In addition, the results for the “Thr75-DARPP-32 phosphorylation level (mean)” value with Thr75-DARPP-32 (15 min post-injection), in the experiment on Thr75-DARPP-32 (30 min post-injection) and with Thr75-DARPP-32 (60 min post-injection) were 80, 70 and 80, respectively. In addition, the “DARPP-32 phosphorylation at Thr75 (in words)” value in the experiment with Thr75-DARPP-32 (at 30 minutes) is on record as “decreased”.
In the case of N alpha MeArg-Lys-Pro-Trp-Tle-Leu [NT1], the “effect on the three behavioral effects” value in the experiment with DOI-induced behaviors is given as “antagonize”.
Turning to `COc1cc(C(C)=O)ccc1OCCCN1CCC(c2noc3cc(F)ccc23)CC1` [iloperidone], in the experiment with DOI-induced behaviors, the “effect on the three behavioral effects” value is on record as “antagonize”.
On to `CCN1CCC[C@H]1CNC(=O)c1c(OC)ccc(Br)c1OC` [remoxipride], for which the “effect on the three behavioral effects” value with DOI-induced behaviors is given as “antagonize”.
For the molecule `CN1CC[C@]23c4c5ccc(O)c4O[C@H]2[C@@H](O)C=C[C@H]3[C@H]1C5` [morphine], the “frontal cortex levels” value with DARPP-32 is “without effects”.
As for `CN(C)CCCN1c2ccccc2CCc2ccccc21` [imipramine], the “frontal cortex levels” value with DARPP-32 was “significant increases”.
Consider `Cc1nc2n(c(=O)c1CCN1CCC(c3noc4cc(F)ccc34)CC1)CCCC2` [risperidone], for which the “effect on the three behavioral effects” value in the experiment with DOI-induced behaviors was “antagonize”.
